Data from patent US6211214A, “Biphenyl ether oxazolines and their use as pest-control agents” (Bayer Aktiengesellschaft, priority 1995, dated 2001).
Like-named read-outs stand apart in the source and are kept apart here.

Legend:
[1] = tested on: caterpillars of the owlet moth (Spodoptera frugiperda); assay: Spodoptera frugiperda test (cabbage leaves dipped); format: in vivo; conditions: after 7 days, 0.1% active compound; for mortality at 0.1 % strength: Spodoptera frugiperda, 168 h, read-out: destruction
Method: Spodoptera Frugiperda-Test Solvent: 7 parts by weight of dimethylformamide Emulsifier: 1 part by weight of alkylaryl polyglycol ether To produce a suitable preparation of active compound, 1 part by weight of active compound is mixed with the stated amount of solvent and the stated amount of emulsifier, and the concentrate is diluted with water to the desired concentration. Cabbage leaves (Brassica oleracea) are treated by being dipped into the preparation of active compound of the desired concentration and are infested with caterpillars of the owlet moth (Spodoptera frugiperda), as long as the leaves are still moist.

[2] = tested on: mustard beetle larvae (Phaedon cochleariae); assay: Phaedon larvae test (cabbage leaves dipped); format: in vivo; conditions: after 7 days, 0.01% active compound; for mortality at 0.01 % strength: Phaedon cochleariae, 168 h, read-out: destruction
Method: Phaedon Larvae Test Solvent: 7 parts by weight of dimethylformamide Emulsifier: 1 part by weight of alkylaryl polyglycol ether To produce a suitable preparation of active compound, 1 part by weight of active compound is mixed with the stated amount of solvent and the stated amount of emulsifier, and the concentrate is diluted with water to the desired concentration. Cabbage leaves (Brassica oleracea) are treated by being dipped into the preparation of the active compound of the desired concentration and are infested with mustard beetle larvae (Phaedon cochleariae), as long as the leaves are still moist.

[3] = log p (partition coefficient octanol/water, determined experimentally from reversed phase HPLC); format: physicochemical; conditions: reversed phase hplc
From the text: [log p=logarithm of the partition coefficient p of the substance between the solvents octanol and water, determined experimentally from reversed phase HPLC]

[4] = tested on: green peach aphid (Myzus persicae); assay: Myzus test (infested broad bean seedlings dipped); format: in vivo; conditions: 144 h, after 6 days, 0.01% active compound, read-out: destruction
Method: (§1) Solvent: 7 parts by weight of dimethylformamide
(§2) Emulsifier: 1 part by weight of alkylaryl polyglycol ether
To produce a suitable preparation of active compound, 1 part by weight of active compound is mixed with the stated amount of solvent and the stated amount of emulsifier and the concentrate is diluted with water to the desired concentration.
Seedlings of broad beans (Vicia faba) infested by the green peach aphid (Myzus persicae) are dipped into the preparation of active compound of the desired concentration and placed in a plastic container.
After the desired time, the destruction in % is determined. 100% means that all the aphids have been killed; 0% means that none of the aphids has been killed.

[5] = tested on: caterpillars of the diamond-back moth (Plutella maculipennis); assay: Plutella test (cabbage leaves dipped); format: in vivo; conditions: 168 h, after 7 days, 0.0001% active compound, read-out: destruction
Method: as §1, §2
To produce a suitable preparation of active compound, 1 part by weight of active compound is mixed with the stated amount of solvent and the stated amount of emulsifier, and the concentrate is diluted with water to the desired concentration.
Cabbage leaves (Brassica oleracea) are treated by being dipped into the preparation of active compound of the desired concentration and are infested with caterpillars of the diamond-back moth (Plutella maculipennis) while the leaves are still moist.
After the desired time, the destruction in % is determined. 100% means that all the caterpillars have been killed; 0% means that none of the caterpillars have been killed.

[6] = tested on: two-spotted spider mite (Tetranychus urticae); assay: Tetranychus test (OP-resistant/dipping treatment); format: in vivo; conditions: 312 h, read-out: destruction
Method: Tetranychus Test (OP-resistant/dipping treatment)
as §1, §2
To produce a suitable preparation of active compound, 1 part by weight of active compound is mixed with the stated amount of solvent and the stated amount of emulsifier, and the concentrate is diluted with emulsifier-containing water to the desired concentrations.
Bean plants (Phaseolus vulgaris) which are heavily infested with all stages of the two-spotted spider mite (Tetranychus urticae) are treated by being dipped into a preparation of the active compound of the desired concentration.
After the desired time, the effect in % is determined. 100% means that all the spider mites have been killed; 0% means that none of the spider mites have been killed.

Row | chromatographic logP [3] | Compound | mortality at 0.1 % strength [1] [%] | mortality at 0.01 % strength [2] [%] | also measured
1 | – | CCCC(C#N)Oc1ccc(-c2ccc(C3COC(c4c(F)cccc4F)=N3)cc2)cc1 (stereo not shown) [Example 21] | 100 | 100 | –
2 | 4.43 | CC(C)(C)OC(=O)COc1ccc(-c2ccc(C3COC(c4c(F)cccc4F)=N3)cc2)cc1 (stereo not shown) [Example 10] | 100 | – | –
3 | – | N#CCCCOc1ccc(-c2ccc(C3COC(c4c(F)cccc4F)=N3)cc2)cc1 (stereo not shown) [Example 14] | 100 | 100 | –
4 | 4.56 | COC(=O)C(Oc1ccc(-c2ccc(C3COC(c4c(F)cccc4F)=N3)cc2)cc1)C(C)C (stereo not shown) [Example 18] | 100 | – | –
5 | – | CC(Oc1ccc(-c2ccc(C3COC(c4c(F)cccc4F)=N3)cc2)cc1)C1=NOCCO1 (stereo not shown) [Example 20] | 100 | 100 | –
6 | – | COc1ccc(-c2ccc(C3COC(c4c(F)cccc4F)=N3)cc2)cc1 (stereo not shown) [(A), reference compound] | – | – | mortality at 0.01 % strength [4]: 5%; destruction [1]: no destruction; mortality at 0.0001 % strength [5]: 5%; mortality at 0.001 % strength ([6]; after 13 days, 0.001% active compound): 45%; destruction [2]: no destruction
7 | – | O=C(COc1ccc(-c2ccc(C3COC(c4c(F)cccc4F)=N3)cc2)cc1)c1ccccc1 (stereo not shown) [Example 1, 2-(2,6-difluorophenyl)-4-(4'-benzoylmethoxy-biphenyl-4-yl)-1,3-oxazoline] | 100 | 100 | mortality at 0.001 % strength [6]: 98%
8 | – | CON=C(C)COc1ccc(-c2ccc(C3COC(c4c(F)cccc4F)=N3)cc2)cc1 (stereo not shown) [Example 13] | – | 100 | –
9 | – | CC(C#N)Oc1ccc(-c2ccc(C3COC(c4c(F)cccc4F)=N3)cc2)cc1 (stereo not shown) [Example 4, 2-(2,6-difluorophenyl)-4-[4'-(2-propionitriloxy)-biphenyl-4-yl]-1,3-oxazoline] | 100 | 100 | mortality at 0.0001 % strength [5]: 100%
10 | 4.74 | CCOC(CCOc1ccc(-c2ccc(C3COC(c4c(F)cccc4F)=N3)cc2)cc1)OCC (stereo not shown) [Example 16] | 100 | 100 | –
11 | 5.95 | CCON=C(COc1ccc(-c2ccc(C3COC(c4c(F)cccc4F)=N3)cc2)cc1)C(C)(C)C (stereo not shown) [Example 79] | – | – | –
12 | – | CON=C(COc1ccc(-c2ccc(C3COC(c4c(F)cccc4F)=N3)cc2)cc1)c1ccc(C)c(C)c1 (stereo not shown) [Example 189] | – | – | chromatographic logP ([3]; A isomer): 5.58; chromatographic logP ([3]; B isomer): 5.29
13 | 5.02 | CC(=O)C(C)(C)Oc1ccc(-c2ccc(C3COC(c4ccccc4Cl)=N3)cc2)cc1Cl (stereo not shown) [Example 173] | – | – | –

Row | Compound | chromatographic logP [3] | mortality at 0.1 % strength [1] [%] | mortality at 0.01 % strength [2] [%] | also measured
14 | CON=C(COc1ccc(-c2ccc(C3COC(c4c(F)cccc4F)=N3)cc2)cc1)c1ccccc1 (stereo not shown) [Example 2] | 5.01 | 100 | 100 | mortality at 0.0001 % strength [5]: 100%; mortality at 0.001 % strength [6]: 98%
